{"source": "ChEMBL document CHEMBL2424584", "about": "“Novel cross-link breaker based on zwitterion structure: synthesis, structure and druggability studies” (Eur J Med Chem, 2013)", "species": "Rattus norvegicus", "test": "Reversible of increased arterial stiffness associated with diabetes in rat", "format": "functional, organism-based", "note": "The source made the active and inactive calls. The rule behind the calls is not given here.", "data": [{"smiles": "Cc1csc[n+]1CC(=O)[O-]", "values": [{"measurement": "Activity", "value": "Active"}]}]}
